Laboratory results as given in patent publication US20090057618A1, “Corrosion inhibitors containing amphoteric surfactants” (Clariant International Ltd., priority 2007, published 2009).

Experiment: Shell wheel test (corrosion inhibition)
Settings: 50 ppm of a 24% solution of the inhibitor; salt water/petroleum 9:1, 5% NaCl, pH 3.5; 40 rpm, 70° C., 24 hours; from decrease in coupon mass vs blank
Procedure: The compounds according to the invention were tested as corrosion inhibitors in the Shell wheel test. Coupons of C steel (DIN 1.1203 with 15 cm^2 surface area) were immersed in a salt water/petroleum mixture (9:1, 5% strength NaCl solution adjusted to pH 3.5 with acetic acid) and exposed to this medium at a speed of 40 rpm at 70° C. for 24 hours. The inhibitor dose was 50 ppm of a 24% solution of the inhibitor. The protection values were calculated from the decrease in the mass of the coupons, based on a blank value.

## CCCCCCCC/C=C\CCCCCCCC(=O)NC(CCSC)C(=O)[O-].[K+] (racemic) [Example 2, N-Oleoyl-DL-methionine Potassium Salt]
  ø protection %: 69%
